# Values joined by “and” are separate entries in the source; they are usually repeats but may differ in a detail not shown here. Identical values can stand only once.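 How tested: cells in 96-well plates exposed to compound for 48 hours at five concentrations. GI50 marks 50% less growth. TGI denotes the concentration required for complete inhibition of growth.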
# Test system: MOLT-4 leukemia
# Test: NCI tumour cell line growth inhibition, 48 h
SMILES,GI50,TGI
CC[C@@]1(O)C[C@H](OC2CC(N(C)C)C(O)C(C)O2)c2c(O)c3c(c(O)c2[C@H]1OC1CC(N(C)C)C(O)C(C)O1)C(=O)c1cccc(O)c1C3=O (stereo not given in full),< 0.01 µM,0.0573 µM
COC1(OC)CCC2C1C1CCC(OC)(OC)C21 (stereo not given),,> 50 µM
CC/C=C\CCC/C=C1/C(=O)C=C[C@@H]1C/C=C\CCCC(=O)OC,2.43 µM,8.39 µM
Cn1cnc([N+](=O)[O-])c1Sc1nnc(-c2cccnc2)n1C,,52 µM
CCOC(=O)C1=C(C)NC(=S)NC1c1ccccc1 (stereo not given),,> 100 µM
COC1=CC(=O)c2nc(-c3ccncc3)[nH]c2C1=O,> 100 µM,> 100 µM
O=C(/C=C/c1ccccc1)NC1C=Nc2ccc(Cl)cc2NC1=O (stereo not given),,27.3 µM
COC1CCC2C(NS(=O)(=O)c3ccc(C)cc3)CCCC2O1 (stereo not given) (tested in a mixture with another compound),,20.9 µM
CC(C)C/C(CC(=O)CCC(=O)Nc1ccccc1[N+](=O)[O-])=N\NC(=O)c1cc2ccccc2cc1O,,> 100 µM
O=C(O)c1ccccc1[Se][Se]c1ccccc1C(=O)O,,> 100 µM
Cn1cc(C2=C(c3cn(C)c4ncccc34)C(=O)NC2=O)c2ccccc21,7.54 µM,> 24 µM
Cc1coc2c1CC1(C)C(CCC(O)C1C)C2 (stereo not given),,> 100 µM
C#Cc1ccc(-n2c(/C=C/c3ccc(C(F)(F)F)cc3)nc3ncccc3c2=O)cc1,3.01 µM,8.81 µM
COc1ccc2c3c1C(=O)CCCC3CO2 (stereo not given),,> 100 µM

# Test system: HCC-2998 colon
# Test: NCI tumour cell line growth inhibition, 48 h
SMILES,GI50,TGI
CC[C@@]1(O)C[C@H](OC2CC(N(C)C)C(O)C(C)O2)c2c(O)c3c(c(O)c2[C@H]1OC1CC(N(C)C)C(O)C(C)O1)C(=O)c1cccc(O)c1C3=O (stereo not given in full),< 0.01 µM,0.0759 µM and 0.0216 µM
COC1(OC)CCC2C1C1CCC(OC)(OC)C21 (stereo not given),,> 50 µM
CC/C=C\CCC/C=C1/C(=O)C=C[C@@H]1C/C=C\CCCC(=O)OC,2.3 µM,4.02 µM
Cn1cnc([N+](=O)[O-])c1Sc1nnc(-c2cccnc2)n1C,,67.1 µM
CCOC(=O)C1=C(C)NC(=S)NC1c1ccccc1 (stereo not given),,> 100 µM
COC1=CC(=O)c2nc(-c3ccncc3)[nH]c2C1=O,> 100 µM,> 100 µM
O=C(/C=C/c1ccccc1)NC1C=Nc2ccc(Cl)cc2NC1=O (stereo not given),,65.5 µM
COC1CCC2C(NS(=O)(=O)c3ccc(C)cc3)CCCC2O1 (stereo not given) (tested in a mixture with another compound),,> 34.5 µM
CC(C)C/C(CC(=O)CCC(=O)Nc1ccccc1[N+](=O)[O-])=N\NC(=O)c1cc2ccccc2cc1O,,> 100 µM
O=C(O)c1ccccc1[Se][Se]c1ccccc1C(=O)O,,> 100 µM
Cn1cc(C2=C(c3cn(C)c4ncccc34)C(=O)NC2=O)c2ccccc21,> 21.2 µM,> 25 µM
Cc1coc2c1CC1(C)C(CCC(O)C1C)C2 (stereo not given),,> 100 µM
C#Cc1ccc(-n2c(/C=C/c3ccc(C(F)(F)F)cc3)nc3ncccc3c2=O)cc1,1.96 µM,3.47 µM
COc1ccc2c3c1C(=O)CCCC3CO2 (stereo not given),,> 100 µM

# Test system: RXF 393 renal
# Test: NCI tumour cell line growth inhibition, 48 h
SMILES,GI50,TGI
CC[C@@]1(O)C[C@H](OC2CC(N(C)C)C(O)C(C)O2)c2c(O)c3c(c(O)c2[C@H]1OC1CC(N(C)C)C(O)C(C)O1)C(=O)c1cccc(O)c1C3=O (stereo not given in full),< 0.01 µM,0.0643 µM and < 0.01 µM
COC1(OC)CCC2C1C1CCC(OC)(OC)C21 (stereo not given),,> 50 µM
CC/C=C\CCC/C=C1/C(=O)C=C[C@@H]1C/C=C\CCCC(=O)OC,2.6 µM,6.02 µM
Cn1cnc([N+](=O)[O-])c1Sc1nnc(-c2cccnc2)n1C,,23.9 µM
CCOC(=O)C1=C(C)NC(=S)NC1c1ccccc1 (stereo not given),,> 100 µM
COC1=CC(=O)c2nc(-c3ccncc3)[nH]c2C1=O,> 100 µM,> 100 µM
O=C(/C=C/c1ccccc1)NC1C=Nc2ccc(Cl)cc2NC1=O (stereo not given),,52.4 µM
COC1CCC2C(NS(=O)(=O)c3ccc(C)cc3)CCCC2O1 (stereo not given) (tested in a mixture with another compound),,> 34.5 µM
CC(C)C/C(CC(=O)CCC(=O)Nc1ccccc1[N+](=O)[O-])=N\NC(=O)c1cc2ccccc2cc1O,,> 100 µM
O=C(O)c1ccccc1[Se][Se]c1ccccc1C(=O)O,,> 100 µM
Cn1cc(C2=C(c3cn(C)c4ncccc34)C(=O)NC2=O)c2ccccc21,3.8 µM,10.7 µM
Cc1coc2c1CC1(C)C(CCC(O)C1C)C2 (stereo not given),,> 100 µM
C#Cc1ccc(-n2c(/C=C/c3ccc(C(F)(F)F)cc3)nc3ncccc3c2=O)cc1,1.79 µM,3.79 µM
COc1ccc2c3c1C(=O)CCCC3CO2 (stereo not given),,> 100 µM

# Test system: HL-60(TB) leukemia
# Test: NCI tumour cell line growth inhibition, 48 h
SMILES,GI50,TGI
CC[C@@]1(O)C[C@H](OC2CC(N(C)C)C(O)C(C)O2)c2c(O)c3c(c(O)c2[C@H]1OC1CC(N(C)C)C(O)C(C)O1)C(=O)c1cccc(O)c1C3=O (stereo not given in full),0.0102 µM,
COC1(OC)CCC2C1C1CCC(OC)(OC)C21 (stereo not given),,> 50 µM
CC/C=C\CCC/C=C1/C(=O)C=C[C@@H]1C/C=C\CCCC(=O)OC,2.79 µM,7.51 µM
Cn1cnc([N+](=O)[O-])c1Sc1nnc(-c2cccnc2)n1C,,21.1 µM
CCOC(=O)C1=C(C)NC(=S)NC1c1ccccc1 (stereo not given),,> 100 µM
COC1=CC(=O)c2nc(-c3ccncc3)[nH]c2C1=O,> 100 µM,> 100 µM
O=C(/C=C/c1ccccc1)NC1C=Nc2ccc(Cl)cc2NC1=O (stereo not given),,30.3 µM
COC1CCC2C(NS(=O)(=O)c3ccc(C)cc3)CCCC2O1 (stereo not given) (tested in a mixture with another compound),,18.5 µM
CC(C)C/C(CC(=O)CCC(=O)Nc1ccccc1[N+](=O)[O-])=N\NC(=O)c1cc2ccccc2cc1O,,88.7 µM
O=C(O)c1ccccc1[Se][Se]c1ccccc1C(=O)O,,> 100 µM
Cn1cc(C2=C(c3cn(C)c4ncccc34)C(=O)NC2=O)c2ccccc21,7.85 µM,20.1 µM
Cc1coc2c1CC1(C)C(CCC(O)C1C)C2 (stereo not given),,> 100 µM
C#Cc1ccc(-n2c(/C=C/c3ccc(C(F)(F)F)cc3)nc3ncccc3c2=O)cc1,2.07 µM,6.07 µM
COc1ccc2c3c1C(=O)CCCC3CO2 (stereo not given),,> 100 µM

# Test system: NCI-H522 lung
# Test: NCI tumour cell line growth inhibition, 48 h
SMILES,GI50,TGI
CC[C@@]1(O)C[C@H](OC2CC(N(C)C)C(O)C(C)O2)c2c(O)c3c(c(O)c2[C@H]1OC1CC(N(C)C)C(O)C(C)O1)C(=O)c1cccc(O)c1C3=O (stereo not given in full),< 0.01 µM,0.0857 µM and < 0.01 µM
COC1(OC)CCC2C1C1CCC(OC)(OC)C21 (stereo not given),,> 50 µM
CC/C=C\CCC/C=C1/C(=O)C=C[C@@H]1C/C=C\CCCC(=O)OC,1.91 µM,3.77 µM
Cn1cnc([N+](=O)[O-])c1Sc1nnc(-c2cccnc2)n1C,,15.2 µM
CCOC(=O)C1=C(C)NC(=S)NC1c1ccccc1 (stereo not given),,> 100 µM
COC1=CC(=O)c2nc(-c3ccncc3)[nH]c2C1=O,> 100 µM,> 100 µM
O=C(/C=C/c1ccccc1)NC1C=Nc2ccc(Cl)cc2NC1=O (stereo not given),,34.6 µM
COC1CCC2C(NS(=O)(=O)c3ccc(C)cc3)CCCC2O1 (stereo not given) (tested in a mixture with another compound),,31.5 µM
CC(C)C/C(CC(=O)CCC(=O)Nc1ccccc1[N+](=O)[O-])=N\NC(=O)c1cc2ccccc2cc1O,,76 µM
O=C(O)c1ccccc1[Se][Se]c1ccccc1C(=O)O,,> 100 µM
Cn1cc(C2=C(c3cn(C)c4ncccc34)C(=O)NC2=O)c2ccccc21,10.2 µM,> 25 µM

# — PubChem BioAssay (NCI)
